Data as given in the NIST ThermoML archive (doi:10.1016/j.jct.2013.10.028).

Key:
[1] = molar heat capacity at constant pressure; wn = mass fraction of the nth substance listed; conditions: 100 kPa, Liquid, Large sample (1 g) DSC
[2] = molar heat capacity at constant pressure; conditions: 100 kPa, Liquid, Large sample (1 g) DSC

[Cl-].[Li+] [lithium chloride] + O
molar heat capacity at constant pressure [J/K/mol], [1]
Conditions | 308.15 K | 313.15 K | 318.15 K | 323.15 K | 328.15 K | 333.15 K | 338.15 K | 343.15 K
w1 = 0.15 | 68.89 | 68.97 | 69.06 | 69.18 | 69.28 | 69.36 | 69.36 | 69.42
w1 = 0.2001 | 67.4 | 67.55 | 67.65 | 67.79 | 67.93 | 68.02 | 68.08 | 68.06
w1 = 0.2501 | 66.11 | 66.26 | 66.43 | 66.6 | 66.76 | 66.93 | 67.02 | 67.12
w1 = 0.3 | 65.14 | 65.44 | 65.66 | 65.9 | 66.14 | 66.34 | 66.49 | 66.58
w1 = 0.3499 | 64.84 | 65.16 | 65.4 | 65.65 | 65.92 | 66.15 | 66.33 | 66.49
w1 = 0.3998 | 64.57 | 64.89 | 65.17 | 65.48 | 65.78 | 66.04 | 66.25 | 66.39
w1 = 0.4502 | 64.39 | 64.76 | 65.05 | 65.37 | 65.68 | 65.95 | 66.17 | 66.34

O [water]
[2]
Conditions | molar heat capacity at constant pressure [J/K/mol]
308.15 K | 75.47
313.15 K | 75.43
318.15 K | 75.41
323.15 K | 75.43
328.15 K | 75.45
333.15 K | 75.47
338.15 K | 75.47
343.15 K | 75.47
